Source: US8927760B2, “Colchicine derivatives or pharmaceutically acceptable salts thereof, method for preparing said derivatives, and pharmaceutical composition comprising said derivatives” (priority 2010, dated 2015)
Where “and” joins values, the source holds several entries; their conditions need not be identical. Equal entries are not always repeated.

Experiments:
[1] = system: Wistar rat (recipient) with transplanted Lewis rat heart; assay: Allogeneic heart transplantation (abdominal heterotopic, Lewis donor to Wistar recipient); assay type: in vivo
Procedure: Hearts of 8-week-old Lewis rats (donor) weighing about 250 g were extracted and performed abdominal heterotopic heart transplantation into the abdominal cavity of 8-week-old Wistar rat (recipient) weight about 300 g by cross-clamping caudal vena cava and the abdominal aorta of recipient both proximally and distally to the anastomotic site.
The heart rate of each rat in an untreated control group and the experimental groups was measured by abdominal palpation from the date of the heart transplant, and the heart rate was classified as ++++ (strong and fast heartbeat), +++ (strong or fast heartbeat), ++ (faint and slow but distinct heartbeat), + (faint but steady heartbeat), and ±0 (intermittent heartbeat).

[2] = system: streptozotocin induced diabetic Fischer 344 rats with transplanted Lewis rat islet cells; assay: Allogeneic pancreatic islet cell transplantation - combined intraperitoneal administration; assay type: in vivo; conditions: i.p. for 14 days
Procedure: (§1) Streptozotocin is a drug that destroys pancreatic islet cells to induce diabetes and is used to create experimental diabetic animal models. Allogeneic islets were transplanted into the livers of streptozotocin induced diabetic rat by injection into the portal vein. The functioning of transplanted islets was assessed by daily measurements of blood glucose levels. Islets were considered rejected when the blood glucose level was 200 mg/dl on two consecutive days.
(§2) 35 mg/kg of streptozotocin (50 mg/mL) dissolved in a 0.1 M citrate buffer solution (pH 4.5) was intraperitoneally injected into 8-week-old male Fischer 344 rats (F344) weighing about 200 to 220 g. Then, the blood glucose level was measured after 1 week, and the first day when the blood glucose level increased over 300 mg/dl and the increase was repeated more than twice was considered as the date of diagnosis of diabetes. The rats were used in transplantation 3 weeks after the administration of streptozotocin.
(§3) Pancreases of 8-week-old male Lewis rats were extracted on the 3 weeks after the diabetes was induced in Fischer rats, and islet cells were isolated. The isolated islet cells were cultured in a CO2 incubator at 37° C. for a day, and the cultured islet cells were transplanted into the diabetic Fischer rats.
However, considering the interaction between the two drugs, the two drugs were introduced in different syringes and injected to right and left sides of the abdominal cavity, respectively, and the measurement results are shown in the following table 4.

[3] = system: streptozotocin induced diabetic Fischer 344 rats with transplanted Lewis rat islet cells; assay: Allogeneic pancreatic islet cell transplantation - continuous combined intraperitoneal administration; assay type: in vivo
Procedure: as §1, §2, §3

[4] = system: streptozotocin induced diabetic Fischer 344 rats with transplanted Lewis rat islet cells; assay: Allogeneic pancreatic islet cell transplantation - single intraperitoneal administration; assay type: in vivo; conditions: single administration
Procedure: as §1, §2, §3
Cyclosporin (5 mg/kg), colchicine (10 μg/kg and 40 μg/kg), and colchicine derivative compounds (compounds 1, 7, 9, 14, 15, 17, 18, 22, and 23; 50 μg/kg) were administered to the Fischer rats, to which the islet cells were transplanted, for 14 days from the date of transplantation, and the maintenance of blood glucose levels was examined until rejection occurred from the date of transplantation.

[5] = system: spleen cells of rats; assay: Cytotoxicity test in rat spleen cells (CCK, absorbance at 450 nm); assay type: cell-based; conditions: 72 hours, at concentrations of 100 ng to 10000 ng/mL
Procedure: Cytotoxicity test was performed to determine the toxicity of immunosuppressant candidate materials by mixing the immunosuppressant candidate materials with spleen cells of rats in culture media and measuring the degree of toxicity in the cells. […] The concentrations of the drugs were 0.1, 1, 10, 100, 1000, 10000, and 100000 ng/mL. The cells were cultured in a CO2 incubator for 72 hours, and then each well was treated with 10 μl of CCK-SK (Dojindo, Japan). Subsequently, the cells were cultured again in the CO2 incubator for 4 hours, and then the absorbance (O.D. value) was measured at 450 nm using a spectrophotometer.

[6] = 10 μg/kg intravenously for 14 days
[7] = CsA (5 mg/kg) & Compound 14 (40 μg/kg) for 2 weeks, then continuously injected
[8] = CsA (5 mg/kg) & Compound 14 (500 μg/kg) for 2 weeks, then continuously injected
[9] = CsA (5 mg/kg) & Compound 14 (500 μg/kg) for 2 weeks, then only CsA (5 mg/kg)
[10] = CsA (5 mg/kg) & Compound 14 (500 μg/kg) for 2 weeks, then only compound 14 (500 μg/kg)
[11] = CsA (5 mg/kg) & Compound 14 (500 μg/kg) injected for 2 weeks

COc1cc2c(c(OC)c1OC)-c1ccc(OC)c(=O)cc1C(NC(=O)OCC1c3ccccc3-c3ccccc31)CC2 (stereo not shown) [Compound 14, (1,2,3,10-tetramethoxy-9-oxo-5,6,7,9-tetrahydro-benzo[a]heptalen-7-yl)-carbamic acid 9H-fluoren-9-ylmethyl ester]
Average number of days for which heart rate was kept [1, 6]: >107 ± 86.6 days
Number of days for which heart rate was kept (individual rats) [1, 6]: 9 day and over 139 day and over 173 day and > 139 day and > 173 day
Average number of days for which heart rate was kept ([1]; 40 μg/kg intravenously for 14 days): >173.5 ± 0.7 days
Number of days for which heart rate was kept (individual rats) ([1]; 40 μg/kg intravenously for 14 days, * = death): over 173 day and > 174 day and > 173 day
Average number of days for which islet cell function was maintained ([2]; 10 μg/kg combined with CsA (5 mg/kg)): 28.7 days
Average number of days for which islet cell function was maintained ([2]; 40 μg/kg combined with CsA (5 mg/kg)): >61.8 days
Average number of days for which islet cell function was maintained [3, 7]: >63 ± 9.9 days
Number of days for which islet cell function was maintained (individual rats) [3, 7]: 56 days and > 70 days
Average number of days for which islet cell function was maintained [3, 8]: 67.7 ± 24.0 days
Number of days for which islet cell function was maintained (individual rats) [3, 8]: 40 days and 81 days and 82 days
Average number of days for which islet cell function was maintained [3, 9]: 48.5 ± 12.0 days
Number of days for which islet cell function was maintained (individual rats) [3, 9]: 40 days and 57 days
Average number of days for which islet cell function was maintained [3, 10]: 52.7 ± 52.3 days
Number of days for which islet cell function was maintained (individual rats) [3, 10]: 20 days and 25 days and 113 days
Average number of days for which islet cell function was maintained [3, 11]: 29 ± 3.61 days
Number of days for which islet cell function was maintained (individual rats) [3, 11]: 25 days and 30 days and 32 days
islet cell function improved, times compared to 2 weeks combined administration only ([3]; two drugs continuously administered together after combined administration for 2 weeks): about 2.3 times
Average number of days for which islet cell function was maintained ([4]; 10 μg/kg i.p. for 14 days): 5.5 ± 0.71 days
Number of days for which islet cell function was maintained (individual rats) ([4]; 10 μg/kg i.p. for 14 days): 5, 5 day
Average number of days for which islet cell function was maintained ([4]; 40 μg/kg i.p. for 14 days): 6.5 ± 0.71 days
Number of days for which islet cell function was maintained (individual rats) ([4]; 40 μg/kg i.p. for 14 days, * = death): 6 days and 7 days
cytotoxicity [5]: no cytotoxicity
